Experiment [1] has as its target Melatonin receptor type 1A (Homo sapiens, UniProt P48039). As to the kind of experiment: Binding affinity to human MT1 receptor expressed in CHO cells assessed as inhibition constant by HTRF method. (TR-FRET usually uses a lanthanide donor and a delayed reading to cut background.)
The target in experiment [2] is T1, Melatonin receptor type 1B (Homo sapiens, UniProt P49286).
T1 sequence (P49286 whole entry): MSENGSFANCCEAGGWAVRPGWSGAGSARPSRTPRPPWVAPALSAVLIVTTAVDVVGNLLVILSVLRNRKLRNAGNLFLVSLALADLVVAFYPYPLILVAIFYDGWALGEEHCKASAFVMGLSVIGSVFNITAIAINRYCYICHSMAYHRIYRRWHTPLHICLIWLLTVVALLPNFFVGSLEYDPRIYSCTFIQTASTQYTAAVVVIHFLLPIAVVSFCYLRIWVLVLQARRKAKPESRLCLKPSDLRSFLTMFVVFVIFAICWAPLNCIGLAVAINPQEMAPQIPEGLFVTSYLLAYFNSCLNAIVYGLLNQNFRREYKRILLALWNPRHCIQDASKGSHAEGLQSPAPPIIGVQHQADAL
Briefly: Binding affinity to human MT2 receptor expressed in CHO cells assessed as inhibition constant by HTRF method.

Structures are written as SMILES.

Sequence of Melatonin receptor type 1A (P48039 whole entry): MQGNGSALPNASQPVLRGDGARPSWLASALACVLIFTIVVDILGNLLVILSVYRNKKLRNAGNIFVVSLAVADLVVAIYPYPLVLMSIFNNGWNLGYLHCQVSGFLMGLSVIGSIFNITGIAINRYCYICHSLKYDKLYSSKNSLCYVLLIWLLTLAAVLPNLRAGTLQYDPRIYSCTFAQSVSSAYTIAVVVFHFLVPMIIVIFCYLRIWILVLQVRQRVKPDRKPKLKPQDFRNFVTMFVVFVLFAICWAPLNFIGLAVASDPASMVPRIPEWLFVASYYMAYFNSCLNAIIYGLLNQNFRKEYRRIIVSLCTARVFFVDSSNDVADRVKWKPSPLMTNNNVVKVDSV

`CCCn1c(NC(=O)Cc2coc3cc(OC)ccc23)nc2ccccc21` [Name not given]: the Ki (as a rule, a dissociation constant, usually derived from enzyme kinetics or from competition with a known ligand) in experiment [1] came out at 36 nM.

On to `N#CN1CC[C@@H](NC(=O)c2ccc(-c3cnc4nccn4c3)cc2F)C1` [Name not given], for which, in experiment [2], the Ki came out at 36 nM.

Values taken from BindingDB's records for PubMed 37866336 (The First Affiliated Hospital of China Medical University).
